For this assay, the target named is Kappa-type opioid receptor (Homo sapiens) (UniProt P41145). As to the kind of experiment: kappa opioid receptor blockade potency – cell-based, luminescence, set 2, SAR follow-up (AID 2495). The conditions noted are these: KOR beta-arrestin recruitment, antagonist mode.
Chain of Kappa-type opioid receptor (Homo sapiens) (P41145 whole entry, looked up): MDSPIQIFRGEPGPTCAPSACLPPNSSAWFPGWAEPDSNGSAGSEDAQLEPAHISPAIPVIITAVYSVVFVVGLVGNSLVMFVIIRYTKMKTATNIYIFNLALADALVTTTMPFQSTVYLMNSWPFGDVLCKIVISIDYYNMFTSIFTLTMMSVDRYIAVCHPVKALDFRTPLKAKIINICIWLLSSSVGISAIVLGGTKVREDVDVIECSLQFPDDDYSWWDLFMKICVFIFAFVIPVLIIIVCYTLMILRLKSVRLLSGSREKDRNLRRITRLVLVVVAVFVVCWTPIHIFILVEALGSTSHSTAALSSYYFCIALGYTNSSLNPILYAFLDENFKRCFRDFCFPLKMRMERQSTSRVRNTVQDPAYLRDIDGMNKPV

In general, IC50 refers to the concentration at which inhibition is half-maximal. With `CCc1ccc(S(=O)(=O)NCc2ccc(C(=O)NCCN(Cc3ccccc3)C(C)C)cc2)cc1`, the IC50 is 1120 nM.

The values are drawn from PubChem BioAssay AID2495 (Sanford-Burnham Center for Chemical Genomics, 2010).
